What was measured:
Normal human fibroblasts [1] = experiment: Test of fibroblast activation function (MTT formazan); assay type: cell-based; conditions: positive control, DMEM containing 5 percent FBS, 48 hours, control = 100, n = 5
Protocol: 3-(4,5-Dimethyl-2-thiazolyl)-2,5-diphenyl-2H-tetrazolium […] (MTT) cleaves NADPH or NADH produced in energy metabolic processes in mitochondria within cells to produce formazan. Thus, the quantity of formazan produced was adopted as an indicator of cell activation function.
Normal human fibroblasts were seeded onto a 96-well microplate at a cell density of 3.0×10^4 cells/well. After culturing for 24 hours in Dulbecco's modified eagle medium (DMEM) containing 1 percent fetal bovine serum (FBS), the medium was replaced with DMEM containing 1 percent FBS containing a freeze-dried product of grape sap in the concentration shown in Table 1. A positive control (PC) in the form of DMEM containing 5 percent FBS was employed. […]
The cells were washed, the formazan produced in the cells was dissolved in 2-propanol, and a microplate reader was employed to measure the absorbance at 550 nm and 650 nm. The difference between the two was calculated to evaluate the quantity of formazan generated within the cells. Cell activation function was denoted by an activation index (%) with the absorbance (ABS.) of cultivated cells to which no sample was added (control) being denoted as 100. […] The p value was determined to be significant when p<0.05.

Normal human fibroblasts [2] = experiment: Test of collagen synthesis promoting function of fibroblasts (type I collagen ELISA, BCA protein); assay type: cell-based; conditions: positive control, concentration not given, 48 hours
Protocol: The collagen synthesis of fibroblasts was evaluated by quantifying the amount of secreted type I collagen in culture supernatant by ELISA.
Normal human fibroblasts were seeded onto a 96-well microplate at a cell density of 3.0×10^4 cells/well. After culturing for 24 hours in DMEM containing 0.5 percent FBS, the medium was replaced with DMEM containing 0.5 percent FBS containing a freeze-dried product of grape sap in the concentration shown in Table 2. A PC in the form of magnesium ascorbyl phosphate (VCPMg) was employed. After 48 hours, the culture supernatant was collected and the amount of type I collagen was quantified by ELISA.
Culture supernatant and calibration curve-use type I collagen were placed in a 96-well plate and coated overnight at 4° C. […] Twenty minutes later, a microplate reader was employed to measure the absorbance at 405 nm. The quantity of collagen in the culture supernatant was calculated from a calibration curve measured with the same plate.
At the same time, the quantity of cell protein was quantified using BCA protein assay reagent (PIERCE). The quantity of collagen in the culture supernatant was divided by the quantity of protein to calculate the quantity of collagen per unit of protein, which was adopted as the quantity of collagen synthesized by the cells. […] The p value was determined to be significant when p<0.05. […]

O=C1O[C@H]([C@@H](O)CO)C([O-])=C1OP(=O)([O-])[O-].O=C1O[C@H]([C@@H](O)CO)C([O-])=C1OP(=O)([O-])[O-].[Mg+2].[Mg+2].[Mg+2] [PC, magnesium ascorbyl phosphate]
Activation index (%) Mean ± SD (Normal human fibroblasts [1]): 116.0 ± 2.9% | Collagen amount (ng/μg protein) Mean ± SD (Normal human fibroblasts [2]): 32.9 ± 4.8 ng/μg protein | Protein amount (μg) Mean ± SD (Normal human fibroblasts [2]): 11.2 ± 0.2 µg
